From ChEMBL document CHEMBL5465560, “Selectivity Literature for EUbOPEN Chemogenomic Library” (2024)

Assays:
[1] = molecular target: Vascular endothelial growth factor receptor 3 (Homo sapiens, UniProt P35916); assay: Selectivity interaction (Kinase screening (Nanosyn)) EUB0000604a FLT4
[2] = molecular target: T1, Serine/threonine-protein kinase Chk1 (Homo sapiens) (UniProt O14757); assay: Selectivity interaction (Kinase screening (Upstate/Millipore)) EUB0000604a CHEK1
T1 sequence (whole entry): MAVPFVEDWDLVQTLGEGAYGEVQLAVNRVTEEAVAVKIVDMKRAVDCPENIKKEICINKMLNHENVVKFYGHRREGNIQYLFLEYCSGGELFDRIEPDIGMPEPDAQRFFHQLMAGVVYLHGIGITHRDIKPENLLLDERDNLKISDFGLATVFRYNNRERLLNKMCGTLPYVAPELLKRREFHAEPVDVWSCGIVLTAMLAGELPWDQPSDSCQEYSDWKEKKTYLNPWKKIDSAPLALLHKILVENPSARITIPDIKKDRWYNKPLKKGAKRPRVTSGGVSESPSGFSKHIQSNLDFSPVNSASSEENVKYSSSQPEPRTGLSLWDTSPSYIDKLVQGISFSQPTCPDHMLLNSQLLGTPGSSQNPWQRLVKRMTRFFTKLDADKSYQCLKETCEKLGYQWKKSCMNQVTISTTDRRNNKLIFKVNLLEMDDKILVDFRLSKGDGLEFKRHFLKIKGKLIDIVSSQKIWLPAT

[3] = molecular target: T2, Tyrosine-protein kinase ITK/TSK (Homo sapiens) (UniProt Q08881); assay: Selectivity interaction (KinomeScan (DiscoverX)) EUB0001049a ITK; settings: at 1 µM
T2 sequence (whole entry): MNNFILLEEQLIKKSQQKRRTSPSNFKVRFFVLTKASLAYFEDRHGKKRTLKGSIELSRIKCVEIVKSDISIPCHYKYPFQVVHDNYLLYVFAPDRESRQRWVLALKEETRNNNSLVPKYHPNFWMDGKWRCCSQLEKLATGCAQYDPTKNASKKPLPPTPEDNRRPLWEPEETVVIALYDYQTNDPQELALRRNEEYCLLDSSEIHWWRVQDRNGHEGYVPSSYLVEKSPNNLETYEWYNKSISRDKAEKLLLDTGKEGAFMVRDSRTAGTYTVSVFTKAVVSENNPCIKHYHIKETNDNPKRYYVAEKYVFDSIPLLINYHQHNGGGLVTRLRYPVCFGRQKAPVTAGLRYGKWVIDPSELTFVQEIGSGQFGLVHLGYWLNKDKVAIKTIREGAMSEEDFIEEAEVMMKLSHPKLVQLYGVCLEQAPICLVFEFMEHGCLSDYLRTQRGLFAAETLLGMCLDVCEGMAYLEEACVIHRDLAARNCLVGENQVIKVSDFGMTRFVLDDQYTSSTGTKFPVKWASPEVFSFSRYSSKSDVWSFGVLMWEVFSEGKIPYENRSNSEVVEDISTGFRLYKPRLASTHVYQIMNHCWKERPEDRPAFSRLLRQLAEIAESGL

[4] = molecular target: Receptor-interacting serine/threonine-protein kinase 2 (Homo sapiens, UniProt O43353); assay: Selectivity interaction (KinomeScan (DiscoverX)) EUB0001049a RIPK2; settings: at 1 µM
Sequence of Receptor-interacting serine/threonine-protein kinase 2 (O43353 whole entry): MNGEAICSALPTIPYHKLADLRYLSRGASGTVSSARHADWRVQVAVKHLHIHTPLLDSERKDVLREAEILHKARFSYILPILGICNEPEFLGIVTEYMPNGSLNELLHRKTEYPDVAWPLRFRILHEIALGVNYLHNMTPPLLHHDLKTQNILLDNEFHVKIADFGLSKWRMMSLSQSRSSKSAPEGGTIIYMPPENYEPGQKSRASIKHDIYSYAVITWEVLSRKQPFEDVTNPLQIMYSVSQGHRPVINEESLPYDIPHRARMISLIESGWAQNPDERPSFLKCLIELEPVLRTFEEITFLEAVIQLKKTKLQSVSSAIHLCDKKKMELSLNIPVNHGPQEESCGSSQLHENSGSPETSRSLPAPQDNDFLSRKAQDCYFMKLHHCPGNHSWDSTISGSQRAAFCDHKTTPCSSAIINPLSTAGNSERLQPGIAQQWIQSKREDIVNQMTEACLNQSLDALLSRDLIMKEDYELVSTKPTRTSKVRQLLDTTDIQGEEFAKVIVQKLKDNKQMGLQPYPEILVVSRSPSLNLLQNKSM

[5] = molecular target: Calcium/calmodulin-dependent protein kinase type 1 (Homo sapiens) (UniProt Q14012); assay: Selectivity interaction (ActivX KiNativ screen (kinase selectivity in THP-1 cell lysates)) EUB0000639a CAMK1; assay type: subcellular; settings: lysate, at 0.01 µM
Sequence of Calcium/calmodulin-dependent protein kinase type 1 (Homo sapiens) (Q14012 whole entry, looked up): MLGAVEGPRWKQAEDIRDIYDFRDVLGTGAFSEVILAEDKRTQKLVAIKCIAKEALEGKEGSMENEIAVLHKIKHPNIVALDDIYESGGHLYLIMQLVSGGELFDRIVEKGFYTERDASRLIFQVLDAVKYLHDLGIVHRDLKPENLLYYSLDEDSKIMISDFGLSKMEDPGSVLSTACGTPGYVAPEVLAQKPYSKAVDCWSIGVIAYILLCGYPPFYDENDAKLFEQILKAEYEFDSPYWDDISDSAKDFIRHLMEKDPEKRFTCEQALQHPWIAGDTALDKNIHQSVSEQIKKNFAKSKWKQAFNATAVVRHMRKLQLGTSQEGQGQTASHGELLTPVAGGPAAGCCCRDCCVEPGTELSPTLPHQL

[6] = molecular target: Fibroblast growth factor receptor 3 (Homo sapiens, UniProt P22607); assay: Selectivity interaction (Kinase panel (Invitrogen)) EUB0000639a FGFR3; settings: at 200 nM
Sequence of Fibroblast growth factor receptor 3 (P22607 23-806 limits assumed): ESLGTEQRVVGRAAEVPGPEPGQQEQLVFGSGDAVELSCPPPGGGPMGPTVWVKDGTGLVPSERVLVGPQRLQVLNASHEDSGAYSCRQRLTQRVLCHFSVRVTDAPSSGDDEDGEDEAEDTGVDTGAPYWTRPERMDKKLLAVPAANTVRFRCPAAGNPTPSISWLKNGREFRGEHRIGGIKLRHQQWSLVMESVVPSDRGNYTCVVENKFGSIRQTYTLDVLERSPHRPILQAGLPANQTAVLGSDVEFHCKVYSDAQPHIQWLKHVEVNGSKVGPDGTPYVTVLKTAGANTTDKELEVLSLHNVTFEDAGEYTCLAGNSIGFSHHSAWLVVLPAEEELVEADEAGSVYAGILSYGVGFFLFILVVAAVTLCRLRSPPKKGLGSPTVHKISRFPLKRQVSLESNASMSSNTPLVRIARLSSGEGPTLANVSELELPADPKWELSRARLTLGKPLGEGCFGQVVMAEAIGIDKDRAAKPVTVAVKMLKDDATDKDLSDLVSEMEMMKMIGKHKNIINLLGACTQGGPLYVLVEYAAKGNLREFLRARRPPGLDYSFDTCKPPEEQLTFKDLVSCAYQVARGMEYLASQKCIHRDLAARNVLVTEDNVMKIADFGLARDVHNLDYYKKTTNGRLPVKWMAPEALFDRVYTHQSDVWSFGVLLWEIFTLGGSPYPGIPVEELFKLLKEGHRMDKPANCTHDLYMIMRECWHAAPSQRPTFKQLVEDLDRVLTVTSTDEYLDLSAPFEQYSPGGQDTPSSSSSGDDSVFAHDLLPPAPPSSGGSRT

[7] = molecular target: High affinity nerve growth factor receptor (Homo sapiens, UniProt P04629); settings: at 10 µM
[8] = molecular target: T3, Muscarinic acetylcholine receptor M1 (Homo sapiens) (UniProt P11229); assay: Selectivity interaction (GPCR panel (PDSP screen)) EUB0001079a CHRM1; settings: at 10 µM
T3 sequence (whole entry): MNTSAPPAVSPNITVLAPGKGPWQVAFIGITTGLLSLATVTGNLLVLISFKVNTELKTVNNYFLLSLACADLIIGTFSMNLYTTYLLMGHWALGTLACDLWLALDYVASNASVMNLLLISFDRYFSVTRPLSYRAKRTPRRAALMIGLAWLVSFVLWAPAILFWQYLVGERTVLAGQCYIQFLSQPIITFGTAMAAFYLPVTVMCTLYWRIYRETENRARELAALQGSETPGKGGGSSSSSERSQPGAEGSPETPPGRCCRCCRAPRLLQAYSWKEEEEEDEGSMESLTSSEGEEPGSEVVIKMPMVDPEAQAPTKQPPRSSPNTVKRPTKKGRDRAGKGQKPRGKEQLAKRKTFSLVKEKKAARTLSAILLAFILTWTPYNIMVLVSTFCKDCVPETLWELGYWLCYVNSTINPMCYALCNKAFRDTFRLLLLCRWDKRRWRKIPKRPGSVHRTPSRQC

[9] = molecular target: Calcium/calmodulin-dependent protein kinase type II subunit gamma (Homo sapiens) (UniProt Q13555); assay: Selectivity interaction (KinomeScan (DiscoverX)) EUB0000092b CAMK2G; settings: at 10 µM
[10] = molecular target: Glycogen synthase kinase-3 alpha (Homo sapiens, UniProt P49840); assay: Selectivity interaction (KinomeScan (DiscoverX)) EUB0000092b GSK3A; settings: at 10 µM
Sequence of Glycogen synthase kinase-3 alpha (P49840 2-483 limits assumed): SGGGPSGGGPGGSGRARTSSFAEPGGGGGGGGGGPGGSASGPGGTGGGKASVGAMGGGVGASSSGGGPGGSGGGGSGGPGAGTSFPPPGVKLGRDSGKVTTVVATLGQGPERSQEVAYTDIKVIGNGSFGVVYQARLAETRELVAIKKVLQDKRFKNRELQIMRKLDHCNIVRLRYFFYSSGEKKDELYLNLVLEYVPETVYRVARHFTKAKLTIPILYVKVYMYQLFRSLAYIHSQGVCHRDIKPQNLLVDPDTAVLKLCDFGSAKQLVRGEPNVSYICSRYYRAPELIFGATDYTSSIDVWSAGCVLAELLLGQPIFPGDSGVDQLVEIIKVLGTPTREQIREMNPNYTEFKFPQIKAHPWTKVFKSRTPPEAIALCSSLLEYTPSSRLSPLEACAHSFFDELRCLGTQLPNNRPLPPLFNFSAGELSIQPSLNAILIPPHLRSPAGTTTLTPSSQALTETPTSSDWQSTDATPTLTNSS

[11] = molecular target: Myosin light chain kinase, smooth muscle (Homo sapiens, UniProt Q15746); assay: Selectivity interaction (KinomeScan (DiscoverX)) EUB0000092b MYLK; settings: at 10 µM
[12] = molecular target: Cyclin-dependent kinase 8 (Homo sapiens, UniProt P49336); assay: Selectivity interaction (KinomeScan (DiscoverX)) EUB0000092b CDK8; settings: at 10 µM
Sequence of Cyclin-dependent kinase 8 (P49336 whole entry): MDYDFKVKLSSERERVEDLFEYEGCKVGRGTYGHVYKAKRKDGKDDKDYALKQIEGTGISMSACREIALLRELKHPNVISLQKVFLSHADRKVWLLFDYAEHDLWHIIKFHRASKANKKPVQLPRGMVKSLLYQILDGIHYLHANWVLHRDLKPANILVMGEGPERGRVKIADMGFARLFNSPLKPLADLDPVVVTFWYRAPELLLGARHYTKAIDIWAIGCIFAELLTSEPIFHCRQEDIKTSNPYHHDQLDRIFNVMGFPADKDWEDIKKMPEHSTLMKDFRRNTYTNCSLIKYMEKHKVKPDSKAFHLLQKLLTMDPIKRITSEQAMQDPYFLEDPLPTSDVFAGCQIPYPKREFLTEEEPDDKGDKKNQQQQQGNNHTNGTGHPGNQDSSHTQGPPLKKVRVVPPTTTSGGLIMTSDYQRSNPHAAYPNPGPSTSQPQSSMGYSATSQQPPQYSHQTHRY

[13] = molecular target: Dual specificity protein kinase CLK1 (Homo sapiens, UniProt P49759); assay: Selectivity interaction (KinomeScan (DiscoverX)) EUB0000045b CLK1
Sequence of Dual specificity protein kinase CLK1 (P49759 whole entry, looked up): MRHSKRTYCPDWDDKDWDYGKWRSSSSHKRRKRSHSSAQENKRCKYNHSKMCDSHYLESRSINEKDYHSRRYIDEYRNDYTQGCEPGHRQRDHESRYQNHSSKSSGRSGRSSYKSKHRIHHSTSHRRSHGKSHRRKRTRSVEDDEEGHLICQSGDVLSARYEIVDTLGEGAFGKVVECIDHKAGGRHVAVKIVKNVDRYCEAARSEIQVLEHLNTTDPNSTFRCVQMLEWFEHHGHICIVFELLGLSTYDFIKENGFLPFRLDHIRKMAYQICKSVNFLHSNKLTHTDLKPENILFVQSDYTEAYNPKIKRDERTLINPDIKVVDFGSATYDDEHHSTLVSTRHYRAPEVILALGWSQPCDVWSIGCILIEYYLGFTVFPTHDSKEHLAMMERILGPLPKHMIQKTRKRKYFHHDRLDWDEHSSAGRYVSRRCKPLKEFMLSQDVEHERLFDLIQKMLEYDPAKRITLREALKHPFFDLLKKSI

[14] = molecular target: Ribosomal protein S6 kinase alpha-1 (Homo sapiens, UniProt Q15418); assay: Selectivity interaction (KinomeScan (DiscoverX)) EUB0000618a RPS6KA1; settings: at 10 µM
[15] = molecular target: Cyclin-dependent kinase 15 (Homo sapiens) (UniProt Q96Q40); assay: Selectivity interaction (KinomeScan (DiscoverX)) EUB0000607a CDK15; settings: at 10 µM
Sequence of Cyclin-dependent kinase 15 (Homo sapiens) (Q96Q40 whole entry): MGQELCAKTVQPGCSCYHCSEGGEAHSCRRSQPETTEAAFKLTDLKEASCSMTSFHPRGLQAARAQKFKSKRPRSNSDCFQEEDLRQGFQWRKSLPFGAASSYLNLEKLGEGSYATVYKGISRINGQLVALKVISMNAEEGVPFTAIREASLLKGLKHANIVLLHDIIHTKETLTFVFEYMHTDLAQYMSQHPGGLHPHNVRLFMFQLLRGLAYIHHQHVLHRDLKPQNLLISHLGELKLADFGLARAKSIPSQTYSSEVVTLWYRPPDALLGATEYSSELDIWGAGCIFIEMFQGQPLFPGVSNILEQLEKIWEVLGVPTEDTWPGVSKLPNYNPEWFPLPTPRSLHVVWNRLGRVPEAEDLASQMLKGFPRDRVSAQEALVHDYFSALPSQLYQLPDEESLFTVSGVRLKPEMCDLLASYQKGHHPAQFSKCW

[16] = molecular target: Mitogen-activated protein kinase 7 (Homo sapiens) (UniProt Q13164); assay: Selectivity interaction (KinomeScan (DiscoverX)) EUB0000607a MAPK7; settings: at 10 µM
[17] = molecular target: Mitogen-activated protein kinase kinase kinase 11 (Homo sapiens) (UniProt Q16584); assay: Selectivity interaction (KinomeScan (DiscoverX)) EUB0000607a MAP3K11; settings: at 10 µM

Sequence of Vascular endothelial growth factor receptor 3 (P35916 whole entry): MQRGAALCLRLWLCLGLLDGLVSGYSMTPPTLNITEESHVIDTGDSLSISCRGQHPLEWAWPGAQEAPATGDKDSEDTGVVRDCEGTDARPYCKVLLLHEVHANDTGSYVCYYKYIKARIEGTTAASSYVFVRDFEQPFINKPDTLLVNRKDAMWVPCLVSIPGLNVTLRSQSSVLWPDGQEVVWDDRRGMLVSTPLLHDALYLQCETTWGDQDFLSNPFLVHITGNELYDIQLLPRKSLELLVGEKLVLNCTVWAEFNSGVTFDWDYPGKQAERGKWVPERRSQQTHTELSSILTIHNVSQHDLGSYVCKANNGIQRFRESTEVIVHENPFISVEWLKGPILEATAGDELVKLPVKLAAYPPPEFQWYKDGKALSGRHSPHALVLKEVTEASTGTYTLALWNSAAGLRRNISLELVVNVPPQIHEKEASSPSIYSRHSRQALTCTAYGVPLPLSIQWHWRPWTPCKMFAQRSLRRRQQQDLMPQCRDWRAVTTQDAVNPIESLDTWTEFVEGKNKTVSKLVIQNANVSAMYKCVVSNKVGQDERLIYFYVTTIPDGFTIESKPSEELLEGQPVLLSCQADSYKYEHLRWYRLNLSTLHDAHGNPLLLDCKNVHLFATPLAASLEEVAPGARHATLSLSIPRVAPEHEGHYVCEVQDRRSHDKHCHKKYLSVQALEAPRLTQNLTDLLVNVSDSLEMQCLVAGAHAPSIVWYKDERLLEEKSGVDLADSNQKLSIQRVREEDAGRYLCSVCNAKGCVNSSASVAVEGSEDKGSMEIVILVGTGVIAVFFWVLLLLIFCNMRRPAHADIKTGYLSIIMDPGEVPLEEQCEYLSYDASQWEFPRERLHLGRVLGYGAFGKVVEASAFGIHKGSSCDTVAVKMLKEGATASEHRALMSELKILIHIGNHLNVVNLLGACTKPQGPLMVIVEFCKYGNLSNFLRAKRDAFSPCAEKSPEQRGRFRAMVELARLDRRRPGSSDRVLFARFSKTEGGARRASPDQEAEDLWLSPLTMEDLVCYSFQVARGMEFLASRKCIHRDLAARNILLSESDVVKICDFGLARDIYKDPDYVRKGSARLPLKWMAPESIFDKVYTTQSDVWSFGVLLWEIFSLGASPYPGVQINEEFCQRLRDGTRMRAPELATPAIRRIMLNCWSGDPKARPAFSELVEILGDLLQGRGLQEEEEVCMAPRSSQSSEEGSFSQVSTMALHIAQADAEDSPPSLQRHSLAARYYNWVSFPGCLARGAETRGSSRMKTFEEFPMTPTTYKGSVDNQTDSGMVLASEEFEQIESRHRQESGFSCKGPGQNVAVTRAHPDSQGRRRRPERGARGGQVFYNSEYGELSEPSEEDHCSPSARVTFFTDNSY

Q: Which results are given for `Cc1cnc(Nc2ccc(F)cc2Cl)nc1-c1c[nH]c(C(=O)N[C@H](CO)c2cccc(Cl)c2)c1`?
A: % of inhibition [1]: 8%; % of inhibition [2]: 40%

Q: For `COc1cc(Nc2nc(C)cc(-c3cnn4nc(OC)ccc34)n2)cc(C(F)(F)F)c1`, which % of control [3] is on record?
A: Its % of control is 82%.

Q: And the % of control [4]?
A: Its % of control is 100%.

Q: Which % of inhibition [5] does the source give for `CC[C@@H]1[C@H](F)C(=O)N[C@@H]1COc1nccc2cc(C(N)=O)c(OC)cc12` [ZIMLOVISERTIB] here?
A: The % of inhibition was 2.7%.

Q: And the % of inhibition [6]?
A: Its % of inhibition is 2.45%.

Q: With `CCN(CC)CCCCNc1ncc2cc(-c3cc(OC)cc(OC)c3)c(NC(=O)NC(C)(C)C)nc2n1` as the compound, how does the % of control [7] read?
A: The % of control was 100%.

Q: How did the % of inhibition [8] turn out when `Nc1cnc(N2CCc3cc(S(=O)(=O)Nc4c(F)cc(Cl)cc4F)cc(N4CCCC4=O)c32)nc1` [TP-020n] was run?
A: The % of inhibition was -9.48%.

Q: Which % of control [9] does the source give for `CCC(=O)N1CCN(c2ccc(-n3c(=O)ccc4cnc5ccc(-c6cnc7ccccc7c6)cc5c43)cc2C(F)(F)F)CC1` here?
A: Its % of control is 79%.

Q: And the % of control [10]?
A: Its % of control is 93%.

Q: What about the % of control [11] of the same compound?
A: The % of control was 87%.

Q: And the % of control [12]?
A: The % of control was 4.6%.

Q: What does the source list for `C=CC(=O)Nc1cc(-n2c(=O)ccc3cnc4ccc(-c5ccc(NS(C)(=O)=O)cc5)cc4c32)ccc1C`?
A: % of control ([13]; at 1 µM): 95%; % of control ([13]; at 10 µM): 86%

Q: With `O[C@H]1CC[C@H](Nc2ncc3nc(Nc4c(F)cc(F)cc4F)n([C@H]4CCOC4)c3n2)CC1` as the compound, how does the % of control [14] read?
A: The % of control was 98%.

Q: With `CNC(=O)Nc1ccc(-c2nc(N3CC4CCC(C3)O4)c3cnn(C4CCC5(CC4)OCCO5)c3n2)cc1` as the compound, how does the % of control [15] read?
A: Its % of control is 100%.

Q: What about the % of control [16] of the same compound?
A: Its % of control is 100%.

Q: And the % of control [17]?
A: The % of control was 100%.
